Assay results reported in US20250368627A1, “PYRAZOLESULFONAMIDES AS ANTITUMOR AGENTS” (Peloton Therapeutics, Inc., a fully owned subsidiary of …, priority 2019, published 2025).

Experiments:
[1] = molecular target: T1, DDB1DB/DCAF15 and RBM39 R1R2 complex (Homo sapiens, UniProt Q14498+Q66K64); assay: DCAF15 RBM39 Complex Formation Assay (FRET); assay type: binding; conditions: FRET ratio Em 665/Em 615, incubated overnight at 4° C.
T1 construct: Amino acids 150 to 331 of RBM39 were cloned into pGEX4T3; GST (from vector pGEX4T3); TEV cleavage site (N); made in house; host or cells: DDB1DB/His-DCAF15: baculovirus/Sf9 co-expression; RBM39 R1R2: E. coli (pGEX4T3)
T1 sequence (Q66K64 whole entry, the tested form may be a part): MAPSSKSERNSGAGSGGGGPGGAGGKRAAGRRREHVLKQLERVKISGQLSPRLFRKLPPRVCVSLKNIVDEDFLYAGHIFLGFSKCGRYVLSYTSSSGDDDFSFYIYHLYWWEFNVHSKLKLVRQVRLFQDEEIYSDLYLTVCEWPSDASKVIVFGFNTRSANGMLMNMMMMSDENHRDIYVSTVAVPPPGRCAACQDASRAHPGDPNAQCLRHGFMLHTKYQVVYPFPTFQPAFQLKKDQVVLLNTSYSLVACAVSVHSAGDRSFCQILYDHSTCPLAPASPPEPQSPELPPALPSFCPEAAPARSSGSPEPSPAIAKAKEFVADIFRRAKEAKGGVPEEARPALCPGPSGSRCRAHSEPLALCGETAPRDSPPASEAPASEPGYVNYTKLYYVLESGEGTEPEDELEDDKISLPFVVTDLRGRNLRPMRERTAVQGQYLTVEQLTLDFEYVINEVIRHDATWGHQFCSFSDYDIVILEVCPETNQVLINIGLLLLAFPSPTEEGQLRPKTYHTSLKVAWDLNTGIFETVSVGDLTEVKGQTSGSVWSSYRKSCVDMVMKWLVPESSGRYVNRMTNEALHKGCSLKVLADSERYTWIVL
T1 sequence (Q14498 150-331): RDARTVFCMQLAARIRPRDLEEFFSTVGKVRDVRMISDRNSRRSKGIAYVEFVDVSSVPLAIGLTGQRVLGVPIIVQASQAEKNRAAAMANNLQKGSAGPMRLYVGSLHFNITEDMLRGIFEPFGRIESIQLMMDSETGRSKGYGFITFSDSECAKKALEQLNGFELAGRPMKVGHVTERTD
T1 sequence (Q16531 with tags, fused parts or gaps DEL396-708 partner): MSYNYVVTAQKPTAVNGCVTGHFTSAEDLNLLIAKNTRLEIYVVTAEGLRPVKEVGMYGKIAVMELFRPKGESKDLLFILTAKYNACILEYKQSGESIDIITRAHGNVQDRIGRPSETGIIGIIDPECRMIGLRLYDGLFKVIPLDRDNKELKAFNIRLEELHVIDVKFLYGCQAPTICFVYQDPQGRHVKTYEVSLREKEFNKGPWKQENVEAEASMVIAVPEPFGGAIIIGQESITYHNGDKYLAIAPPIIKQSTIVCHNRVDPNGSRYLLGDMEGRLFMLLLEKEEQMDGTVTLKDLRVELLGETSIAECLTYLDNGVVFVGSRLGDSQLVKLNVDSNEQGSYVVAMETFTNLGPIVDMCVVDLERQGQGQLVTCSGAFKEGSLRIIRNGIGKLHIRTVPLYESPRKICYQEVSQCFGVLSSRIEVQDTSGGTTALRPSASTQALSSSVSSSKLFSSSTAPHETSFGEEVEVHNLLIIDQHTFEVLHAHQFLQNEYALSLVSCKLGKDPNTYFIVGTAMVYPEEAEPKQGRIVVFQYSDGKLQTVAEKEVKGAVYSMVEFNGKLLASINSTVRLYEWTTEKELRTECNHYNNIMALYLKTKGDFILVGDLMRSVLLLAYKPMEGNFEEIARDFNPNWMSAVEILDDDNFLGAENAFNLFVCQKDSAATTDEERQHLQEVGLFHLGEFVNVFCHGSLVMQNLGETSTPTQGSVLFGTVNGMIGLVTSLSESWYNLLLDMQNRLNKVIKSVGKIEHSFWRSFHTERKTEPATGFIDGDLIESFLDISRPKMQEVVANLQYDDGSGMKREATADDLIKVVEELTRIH
Description: LANCE Eu-W1024 Anti-6×His and SureLight Allophycocyanin-anti-FLAG antibodies were purchased from Perkin Elmer. Human DDB1DB and His-tagged DCAF15 were co-expressed in baculovirus/sf9 system. While full length DDB1 contains three 7-bladed propellers termed A, B, and C, DDB1DB has only propeller A (amino acids 1 to 395) and C (amino acids 709-1140). The His-tagged DCAF15 contains six histidine residues directly preceding the DCAF15 sequence without any linker. An RBM39 fragment containing RRM1 and RRM2 was expressed in E. coli. Amino acids 150 to 331 of RBM39 were cloned into pGEX4T3 with an N-terminal TEV cleavage site and a C-terminal FLAG tag.
A compound of the present disclosure in DMSO (2 μL) was transferred to a 384-well assay plate. Compound was added in 14 points, 3-fold serial dilution (1 μM to 0.6 pico molar) in DMSO. […] FRET assay buffer (25 mM HEPES, pH 7.5, 100 mM NaCl, […], 0.5 mM TCEP, 0.005% Tween-20, 0.2 nM Eu—W1024 Anti-6×His, 50 nM SureLight Allophycocyanin-anti-FLAG, 20 nM DDB1DB/DCAF15, 50 nM RBM39 R1R2) was added and the resulting solution was incubated overnight at 4° C. The plate was placed in a plate reader (Spark 10) with excitation at 1=340 nm and emissions monitored at 1=665 nm and 1=615 nm, and the FRET ratio (Em 665/Em 615) was determined. Low signal controls containing no compound and high signal controls containing 10 mM indisulam were measured for each plate.
EC50 values were calculated using Dotmatics template equation for 4-parameter fit. Results are expressed as % formation using the following equation: […]

[2] = system: HCT116 human colorectal carcinoma cells; assay: CellTiter-Glo Luminescent Cell Viability Assay; assay type: cell-based; conditions: HCT-116, 72 h, 3 days
Experimental: HCT116 human colorectal carcinoma cells were used in these experiments. HCT116 cells were obtained from ATCC. CellTiter-Glo® Luminescent Cell Viability Assay Reagent was obtained from Promega.
About 3,000 cells were seeded into 96-well plate with […] of media (DMEM supplemented with 10% FBS, 100 units penicillin, and […] streptomycin per mL) the day before the experiment. For compound treatment, the master plate was prepared as follows: 100× compound stocks were prepared in a 96-well plate by 1 to 3 serial dilutions of 0.5 mM DMSO stocks. Each master plate contained serial dilution of 8 compounds, including the control compound E7820. […] of 100× compound stock was added to each well of the assay plate to give final concentrations of […]. Each concentration was tested in triplicate. After 3 days, cell viability was determined using CellTiter-Glo Luminescent Cell Viability Assay Reagent following the manufacturer's recommended protocol. Briefly, […] of CellTiter-Glo reagent was added to each well of the assay plate and the contents were mixed for 3 minutes at 600 rpm on a shaker (Thermomixer R). The plate was immediately placed in a plate reader (Synergy 2) and the luminescence signal (0.5 second per well integration time) was determined. IC50 values were calculated using Dotmatics software.

Row | Structure (SMILES) | IC50 [1] [nM] | EC50 [2] [nM]
1 | O=S(=O)(Nc1cccc2c(Cl)c[nH]c12)c1cnn(CCCF)c1 [Compound 57, N-(3-chloro-1H-indol-7-yl)-1-(3-fluoropropyl)pyrazole-4-sulfonamide] | < 250 | > 1000
2 | N#CCCn1cc(S(=O)(=O)Nc2cccc3c(Cl)c[nH]c23)cn1 [Compound 59, N-(3-chloro-1H-indol-7-yl)-1-(2-cyanoethyl)pyrazole-4-sulfonamide] | < 250 | < 250
3 | Cc1ccc(NS(=O)(=O)c2cnn(CC(F)(F)F)c2)c2[nH]cc(C#N)c12 [Compound 60, N-(3-cyano-4-methyl-1H-indol-7-yl)-1-(2,2,2-trifluoroethyl)pyrazole-4-sulfonamide] | < 250 | < 250
4 | Cc1ccc(NS(=O)(=O)c2cnn(C3CCC3)c2)c2[nH]cc(C#N)c12 [Compound 61, N-(3-cyano-4-methyl-1H-indol-7-yl)-1-cyclobutyl-pyrazole-4-sulfonamide] | < 250 | 250 to 1000
5 | Cc1ccc(NS(=O)(=O)c2cn[nH]c2)c2[nH]cc(C#N)c12 [Compound 62, N-(3-cyano-4-methyl-1H-indol-7-yl)-1H-pyrazole-4-sulfonamide] | < 250 | 250 to 1000
6 | Cc1ccc(NS(=O)(=O)c2cnn(C(C)C)c2)c2[nH]cc(C#N)c12 [Compound 63, N-(3-cyano-4-methyl-1H-indol-7-yl)-1-isopropyl-pyrazole-4-sulfonamide] | < 250 | 250 to 1000
7 | Cc1ccc(NS(=O)(=O)c2cnn(C3COC3)c2)c2[nH]cc(C#N)c12 [Compound 64, N-(3-cyano-4-methyl-1H-indol-7-yl)-1-(oxetan-3-yl)pyrazole-4-sulfonamide] | < 250 | < 250
8 | Cn1cc(S(=O)(=O)Nc2ccc(F)c3c(C#N)c[nH]c23)cn1 [Compound 65, N-(3-cyano-4-fluoro-1H-indol-7-yl)-1-methyl-pyrazole-4-sulfonamide] | < 250 | 250 to 1000
9 | Cc1ccc(NS(=O)(=O)c2cnn(CC(F)F)c2)c2[nH]cc(C#N)c12 [Compound 66, N-(3-cyano-4-methyl-1H-indol-7-yl)-1-(2,2-difluoroethyl)pyrazole-4-sulfonamide] | < 250 | < 250
10 | Cc1ccc(NS(=O)(=O)c2cnn(CCS(C)(=O)=O)c2)c2[nH]cc(C#N)c12 [Compound 67, N-(3-cyano-4-methyl-1H-indol-7-yl)-1-(2-methylsulfonylethyl)pyrazole-4-sulfonamide] | < 250 | 250 to 1000
11 | CCn1cc(S(=O)(=O)Nc2ccc(C)c3c(C#N)c[nH]c23)cn1 [Compound 68, N-(3-cyano-4-methyl-1H-indol-7-yl)-1-ethyl-pyrazole-4-sulfonamide] | < 250 | < 250
12 | Cc1ccc(NS(=O)(=O)c2cnn(CC3CC3)c2)c2[nH]cc(C#N)c12 [Compound 69, N-(3-cyano-4-methyl-1H-indol-7-yl)-1-(cyclopropylmethyl)pyrazole-4-sulfonamide] | < 250 | < 250
13 | Cc1ccc(NS(=O)(=O)c2cnn(CF)c2)c2[nH]cc(C#N)c12 [Compound 70, N-(3-cyano-4-methyl-1H-indol-7-yl)-1-(fluoromethyl)pyrazole-4-sulfonamide] | < 250 | < 250
14 | Cc1ccc(NS(=O)(=O)c2cnn(CC3(C)COC3)c2)c2[nH]cc(C#N)c12 [Compound 71, N-(3-cyano-4-methyl-1H-indol-7-yl)-1-[(3-methyloxetan-3-yl)methyl]pyrazole-4-sulfonamide] | < 250 | 250 to 1000
15 | Cc1ccc(NS(=O)(=O)c2cnn(CC3(F)COC3)c2)c2[nH]cc(C#N)c12 [Compound 72, N-(3-cyano-4-methyl-1H-indol-7-yl)-1-[(3-fluorooxetan-3-yl)methyl]pyrazole-4-sulfonamide] | < 250 | 250 to 1000
16 | Cc1ccc(NS(=O)(=O)c2cnn(CCCF)c2)c2[nH]cc(C#N)c12 [Compound 73, N-(3-cyano-4-methyl-1H-indol-7-yl)-1-(3-fluoropropyl)pyrazole-4-sulfonamide] | < 250 | < 250
17 | Cc1ccc(NS(=O)(=O)c2cnn(C)c2)c2[nH]ccc12 [Compound 74, 1-methyl-N-(4-methyl-1H-indol-7-yl)pyrazole-4-sulfonamide] | > 1000 | > 1000
18 | Cc1ccc(NS(=O)(=O)c2cnn(C)c2)c2[nH]cc(Cl)c12 [Compound 75, N-(3-chloro-4-methyl-1H-indol-7-yl)-1-methyl-pyrazole-4-sulfonamide] | < 250 | < 250
19 | Cc1ccc(NS(=O)(=O)c2cnn(CC(C)(C)C#N)c2)c2[nH]cc(C#N)c12 [Compound 76, N-(3-cyano-4-methyl-1H-indol-7-yl)-1-(2-cyano-2-methyl-propyl)pyrazole-4-sulfonamide] | < 250 | 250 to 1000

The remaining lines, values ahead:

Row | IC50 [1] [nM] | EC50 [2] [nM] | Structure (SMILES)
20 | < 250 | < 250 | Cc1ccc(NS(=O)(=O)c2cnn(CCC#N)c2)c2[nH]cc(C#N)c12 [Compound 77, 1-(2-Cyanoethyl)-N-(3-cyano-4-methyl-1H-indol-7-yl)pyrazole-4-sulfonamide]
21 | < 250 | 250 to 1000 | Cc1ccc(NS(=O)(=O)c2cnn(CC3CCC3)c2)c2[nH]cc(C#N)c12 [Compound 78, N-(3-cyano-4-methyl-1H-indol-7-yl)-1-(cyclobutylmethyl)pyrazole-4-sulfonamide]
22 | < 250 | 250 to 1000 | Cc1ccc(NS(=O)(=O)c2cnn(CC3CC3(F)F)c2)c2[nH]cc(C#N)c12 (stereo not shown) [Compound 79, N-(3-cyano-4-methyl-1H-indol-7-yl)-1-[(2,2-difluorocyclopropyl)methyl]pyrazole-4-sulfonamide]
23 | < 250 | < 250 | C=C(CF)n1cc(S(=O)(=O)Nc2ccc(C)c3c(C#N)c[nH]c23)cn1 [Compound 80, N-(3-cyano-4-methyl-1H-indol-7-yl)-1-[1-(fluoromethyl)vinyl]pyrazole-4-sulfonamide]
24 | < 250 | < 250 | Cn1cc(S(=O)(=O)Nc2ccc(Cl)c3c(Cl)c[nH]c23)cn1 [Compound 81, N-(3,4-dichloro-1H-indol-7-yl)-1-methyl-pyrazole-4-sulfonamide]
25 | < 250 | < 250 | Cn1cc(S(=O)(=O)Nc2ccc(Cl)c3c(C#N)c[nH]c23)cn1 [Compound 82, N-(4-chloro-3-cyano-1H-indol-7-yl)-1-methyl-pyrazole-4-sulfonamide]
26 | < 250 | 250 to 1000 | O=S(=O)(Nc1cccc2c(Cl)c[nH]c12)c1cnn(C2CC(O)C2)c1 (stereo not shown) [Compound 83, N-(3-chloro-1H-indol-7-yl)-1-(3-hydroxycyclobutyl)pyrazole-4-sulfonamide]
27 | < 250 | > 1000 | Cc1ccc(NS(=O)(=O)c2cnn(CC(C)(C)S(C)(=O)=O)c2)c2[nH]cc(C#N)c12 [Compound 84, N-(3-cyano-4-methyl-1H-indol-7-yl)-1-(2-methyl-2-methylsulfonyl-propyl)pyrazole-4-sulfonamide]
28 | < 250 | 250 to 1000 | Cc1ccc(NS(=O)(=O)c2cnn(C3CC4(COC4)C3)c2)c2[nH]cc(C#N)c12 [Compound 85, N-(3-cyano-4-methyl-1H-indol-7-yl)-1-(2-oxaspiro[3.3]heptan-6-yl)pyrazole-4-sulfonamide]
29 | < 250 | 250 to 1000 | Cc1ccc(NS(=O)(=O)c2cnn(C3CCC(F)(F)CC3)c2)c2[nH]cc(C#N)c12 [Compound 86, N-(3-cyano-4-methyl-1H-indol-7-yl)-1-(4,4-difluorocyclohexyl)pyrazole-4-sulfonamide]
